Test results reported in article PMC9958262, “Endocannabinoids enhance hKV7.1/KCNE1 channel function and shorten the cardiac action potential and QT interval” (eBioMedicine, 2023).

Columns and labels:
Type in all cases: cell-based
hKV7.1/KCNE1 (KV7.1) [1] = biological target: T1, hKV7.1/KCNE1 (KV7.1) (Homo sapiens, UniProt P51787); assay: two-electrode voltage clamp in Xenopus oocytes, V50 shift; mutagenesis (R228Q abolishes V50 shift); also active on KV7.[…] alone (EC50 […])
T1 construct: gene KCNQ1; with KCNE1
T1 sequence (P51787 whole entry): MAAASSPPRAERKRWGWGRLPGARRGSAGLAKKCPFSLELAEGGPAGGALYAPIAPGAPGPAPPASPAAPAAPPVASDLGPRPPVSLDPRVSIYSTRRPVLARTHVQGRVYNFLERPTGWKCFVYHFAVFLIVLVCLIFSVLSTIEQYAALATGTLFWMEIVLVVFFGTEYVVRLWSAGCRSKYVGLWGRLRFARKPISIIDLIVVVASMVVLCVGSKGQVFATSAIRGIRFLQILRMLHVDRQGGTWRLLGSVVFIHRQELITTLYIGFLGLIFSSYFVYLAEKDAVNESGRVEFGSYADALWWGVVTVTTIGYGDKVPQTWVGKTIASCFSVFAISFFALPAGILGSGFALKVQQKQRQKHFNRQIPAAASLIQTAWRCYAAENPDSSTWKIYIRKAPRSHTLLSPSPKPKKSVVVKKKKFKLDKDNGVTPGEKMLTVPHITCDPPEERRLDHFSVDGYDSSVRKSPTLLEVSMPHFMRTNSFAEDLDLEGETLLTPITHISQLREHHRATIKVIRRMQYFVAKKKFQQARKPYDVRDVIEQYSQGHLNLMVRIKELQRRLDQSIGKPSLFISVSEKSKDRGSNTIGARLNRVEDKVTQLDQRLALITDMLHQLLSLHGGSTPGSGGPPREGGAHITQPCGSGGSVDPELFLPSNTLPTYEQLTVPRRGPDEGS

hKV7.1/KCNE1 (KV7.1) [2] = biological target: T1, hKV7.1/KCNE1 (KV7.1); assay: two-electrode voltage clamp in Xenopus oocytes, V50 shift
hKV7.1/KCNE1 (KV7.1) [3] = biological target: T1, hKV7.1/KCNE1 (KV7.1); assay: two-electrode voltage clamp in Xenopus oocytes, V50 shift at […]
hKV7.1/KCNE1 (KV7.1) [4] = biological target: T1, hKV7.1/KCNE1 (KV7.1); assay: two-electrode voltage clamp in Xenopus oocytes, V50 shift at […] (moderate effect)
hKV7.1/KCNE1 (KV7.1) [5] = biological target: T1, hKV7.1/KCNE1 (KV7.1); assay: two-electrode voltage clamp in Xenopus oocytes, V50 shift (current amplitude EC50 […]); site mutagenesis supported by MD

Compound CCCCC/C=C\C/C=C\C/C=C\C/C=C\CCCC(=O)N[C@@H](CO)C(=O)O [ARA-S] has an EC50 (hKV7.1/KCNE1 (KV7.1) [1]) of 9 µM.
CC/C=C\C/C=C\C/C=C\C/C=C\C/C=C\C/C=C\CCC(=O)NC(CO)C(=O)O (stereo not shown) [DOC-S] was tested, and the EC50 (hKV7.1/KCNE1 (KV7.1) [2]) was 5 µM.
With CCCCC/C=C\C/C=C\C/C=C\C/C=C\CCCC(=O)NCC(=O)O [NAGly] the “ΔV50 (mV)” value (hKV7.1/KCNE1 (KV7.1) [3]) was −25.5 mV.
For CCCCC/C=C\C/C=C\C/C=C\C/C=C\CCCC(=O)N[C@@H](C)C(=O)O [NALA], the “ΔV50 (mV)” value (hKV7.1/KCNE1 (KV7.1) [3]) was −22.2 mV.
For CCCCC/C=C\C/C=C\C/C=C\C/C=C\CCCC(=O)NCCCC(=O)O [NAGABA], the “ΔV50 (mV)” value (hKV7.1/KCNE1 (KV7.1) [4]) was −6.7 mV.
With CCCCC/C=C\C/C=C\CCCCCCCC(=O)NC(CO)C(=O)O (stereo not shown) [LIN-S] the EC50 (hKV7.1/KCNE1 (KV7.1) [5]) was 12 µM.
For CCCCC/C=C\C/C=C\C/C=C\C/C=C\CCCC(=O)N[C@H](CO)C(=O)O [ARA-D-S], the “ΔV50 (mV)” value (hKV7.1/KCNE1 (KV7.1) [3]) was −29.0 mV.
